Measured values from patent US11214594B2, “Antimicrobial peptide having synergistic antibacterial effect with antibiotics on multidrug resistant bacteria, and use thereof” (priority 2016, dated 2022).
≈ marks a conversion by molar mass, not a printed value. Where two headings read alike, the source gives them in different places. Where a SMILES comes first, the peptide text is derived from it. [ ]: non-standard residue; d: D form.

Experiments:
MDRAB 12035 [1] = test: microbe, parasite or virus in culture; format: cell-based, Acinetobacter baumannii
Method in brief: (§1)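 Broth microdilution in MH medium: bacterial strains diluted to 2×10^6 CFU were mixed with equal volumes of peptide serially diluted twofold in MH medium.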

A. baumannii [2] = test: microbe, parasite or virus in culture; format: cell-based, Acinetobacter baumannii; conditions: for Antibacterial activity relative to PapMA-1: A. baumannii and S. typhimurium
Method in brief: as §1

MDRST 8009 = format: cell-based, Salmonella typhimurium; conditions: agent alone
Method in brief: as §1

[3] = test system: multi-drug resistant bacteria; test: MIC, summary statements for multi-drug resistant bacteria; format: cell-based
Method in brief: as §1

S. typhimurium = test: microbe, parasite or virus in culture; format: cell-based, Salmonella typhimurium
Method in brief: as §1

MDRAB 12035 [4] = test: MIC of antimicrobial peptide during combined treatment with antibiotic; format: cell-based, Acinetobacter baumannii
Method in brief: (§2)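 Strains in MH medium at 2×10^6 CFU/ml were mixed with peptide diluted stepwise (2:1) from its MIC, then antibiotic dilutions in MH medium were added to give the antibiotic MIC. The reversed set-up, peptide titrated against fixed antibiotic, gave the peptide MIC.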

A. baumannii [5] = test: as above; format: cell-based, Acinetobacter baumannii
Method in brief: as §2

E. coli = format: cell-based, Escherichia coli; conditions: E. coli
Method in brief: as §2

MDREC 1229 = format: cell-based, Escherichia coli
Method in brief: as §2

MDRAB 12036 = format: cell-based, Acinetobacter baumannii
Method in brief: as §1

[6] = erythromycin 4 μg/ml (Conc./MIC 1/8)
[7] = erythromycin 8 μg/ml (Conc./MIC 1/4)
[8] = erythromycin 16 μg/ml (Conc./MIC 1/2)
[9] = erythromycin 32 μg/ml (Conc./MIC 1)
[10] = linezolid 64 μg/ml (Conc./MIC 1/8)
[11] = linezolid 512 μg/ml (Conc./MIC 1)
[12] = vancomycin 512 μg/ml (Conc./MIC 1/2)
[13] = vancomycin 1024 μg/ml (Conc./MIC 1)
[14] = linezolid 32 μg/ml (Conc./MIC 1/8)
[15] = linezolid 64 μg/ml (Conc./MIC 1/4)
[16] = with Erythromycin […] (Conc./MIC 1)
[17] = with Linezolid […] (Conc./MIC 1)
[18] = with Vancomycin 1024 μg/ml (Conc./MIC 1)
[19] = erythromycin 32 μg/ml (Conc./MIC 1/8)
[20] = erythromycin 64 μg/ml (Conc./MIC 1/4)
[21] = erythromycin […] (Conc./MIC 1/2)

## CC[C@H](C)[C@H](NC(=O)[C@H](CCCCN)NC(=O)[C@H](Cc1c[nH]c2ccccc12)NC(=O)[C@@H](N)CCCNC(=N)N)C(=O)N[C@@H](Cc1ccccc1)C(=O)N[C@@H](CCCCN)C(=O)N[C@@H](CCCCN)C(=O)N[C@H](C(=O)N[C@H](CCCCN)C(=O)N[C@@H](CCCCN)C(=O)N[C@@H](CC(C)C)C(=O)N[C@@H](CC(C)C)C(=O)N[C@@H](Cc1c[nH]cn1)C(=O)N[C@@H](CCC(=O)O)C(=O)N[C@@H](C)C(=O)N[C@@H](CCCCN)C(=O)N[C@@H](CCCCN)C(=O)N[C@@H](Cc1c[nH]c2ccccc12)C(N)=O)[C@@H](C)CC [PapMA-20, RWK IFK KIk KLL HEA KKW-NH2] (H-RWKIFKKI[dK]KLLHEAKKW-NH2; N-terminus assumed)
MDRAB 12035 [1]
  Minimal inhibitory concentration MIC: 16 mg/L (≈ 6.72 µM)
  Peptide MIC, peptide alone: 16 mg/L
A. baumannii [2]
  Minimal inhibitory concentration MIC: 16 mg/L (≈ 6.72 µM)
  Peptide MIC, peptide alone: 16 mg/L
  Antibacterial activity relative to PapMA-1: at least twice as high
MDRST 8009
  Minimal inhibitory concentration MIC: 64 mg/L (≈ 26.9 µM)
[3]
  Antibacterial activity relative to PapMA-1: twice to four times higher
S. typhimurium
  Minimal inhibitory concentration MIC: 32 mg/L (≈ 13.4 µM)
MDRAB 12035 [4]; [6]
  Peptide MIC during treatment with erythromycin: 4 mg/L
MDRAB 12035 [4]; [7]
  Peptide MIC during treatment with erythromycin: 4 mg/L
MDRAB 12035 [4]; [8]
  Peptide MIC during treatment with erythromycin: 2 mg/L
MDRAB 12035 [4]; [9]
  Peptide MIC during treatment with erythromycin: 0 mg/L
MDRAB 12035 [4]; [10]
  Peptide MIC during treatment with linezolid: 4 mg/L
MDRAB 12035 [4]; [11]
  Peptide MIC during treatment with linezolid: 0 mg/L
MDRAB 12035 [4]; linezolid […] (Conc./MIC 1/2)
  Peptide MIC during treatment with linezolid: 1 mg/L
MDRAB 12035 [4]; linezolid […] (Conc./MIC 1/4)
  Peptide MIC during treatment with linezolid: 2 mg/L
MDRAB 12035 [4]; [12]
  Peptide MIC during treatment with vancomycin: 2 mg/L
MDRAB 12035 [4]; [13]
  Peptide MIC during treatment with vancomycin: 1 mg/L
MDRAB 12035 [4]; vancomycin […] (Conc./MIC 1/4)
  Peptide MIC during treatment with vancomycin: 2 mg/L
MDRAB 12035 [4]; vancomycin […] (Conc./MIC 1/8)
  Peptide MIC during treatment with vancomycin: 4 mg/L
A. baumannii [5]; [6]
  Peptide MIC during treatment with antibiotic: 4 mg/L
A. baumannii [5]; [7]
  Peptide MIC during treatment with antibiotic: 4 mg/L
A. baumannii [5]; [8]
  Peptide MIC during treatment with antibiotic: 2 mg/L
A. baumannii [5]; [9]
  Peptide MIC during treatment with antibiotic: 0 mg/L
A. baumannii [5]; [14]
  Peptide MIC during treatment with antibiotic: 4 mg/L
A. baumannii [5]; [15]
  Peptide MIC during treatment with antibiotic: 2 mg/L
A. baumannii [5]; linezolid […] (Conc./MIC 1)
  Peptide MIC during treatment with antibiotic: 0 mg/L
A. baumannii [5]; linezolid […] (Conc./MIC 1/2)
  Peptide MIC during treatment with antibiotic: 1 mg/L
A. baumannii [5]; [12]
  Peptide MIC during treatment with antibiotic: 0.25 mg/L
A. baumannii [5]; [13]
  Peptide MIC during treatment with antibiotic: 0 mg/L
A. baumannii [5]; vancomycin […] (Conc./MIC 1/4)
  Peptide MIC during treatment with antibiotic: 0.5 mg/L
A. baumannii [5]; vancomycin […] (Conc./MIC 1/8)
  Peptide MIC during treatment with antibiotic: 4 mg/L
E. coli; [16]
  Peptide MIC: 0 mg/L
E. coli; [17]
  Peptide MIC: 0 mg/L
E. coli; [18]
  Peptide MIC: 0 mg/L
MDREC 1229; [19]
  Peptide MIC during treatment with antibiotic: 2 mg/L
MDREC 1229; [20]
  Peptide MIC during treatment with antibiotic: 2 mg/L
MDREC 1229; erythromycin […] (Conc./MIC 1)
  Peptide MIC during treatment with antibiotic: 0 mg/L
MDREC 1229; [21]
  Peptide MIC during treatment with antibiotic: 1 mg/L
MDREC 1229; [10]
  Peptide MIC during treatment with antibiotic: 2 mg/L
MDREC 1229; [11]
  Peptide MIC during treatment with antibiotic: 0 mg/L
MDREC 1229; linezolid […] (Conc./MIC 1/2)
  Peptide MIC during treatment with antibiotic: 1 mg/L
MDREC 1229; linezolid […] (Conc./MIC 1/4)
  Peptide MIC during treatment with antibiotic: 2 mg/L
MDREC 1229; [12]
  Peptide MIC during treatment with antibiotic: 2 mg/L
MDREC 1229; [13]
  Peptide MIC during treatment with antibiotic: 1 mg/L
MDREC 1229; vancomycin […] (Conc./MIC 1/4)
  Peptide MIC during treatment with antibiotic: 4 mg/L
MDREC 1229; vancomycin […] (Conc./MIC 1/8)
  Peptide MIC during treatment with antibiotic: 4 mg/L
MDRAB 12036
  Minimal inhibitory concentration MIC: 16 mg/L (≈ 6.72 µM)

## CC[C@H](C)[C@H](NC(=O)[C@H](CCCCN)NC(=O)[C@H](Cc1c[nH]c2ccccc12)NC(=O)[C@@H](N)CCCNC(=N)N)C(=O)N[C@@H](Cc1ccccc1)C(=O)N[C@@H](CCCCN)C(=O)N[C@@H](CCCCN)C(=O)N[C@H](C(=O)N[C@H](CC(C)C)C(=O)N[C@@H](CCCCN)C(=O)N[C@@H](CC(C)C)C(=O)N[C@@H](CC(C)C)C(=O)N[C@@H](Cc1c[nH]cn1)C(=O)N[C@@H](CCCCN)C(=O)N[C@@H](C)C(=O)N[C@@H](CCCCN)C(=O)N[C@@H](CCCCN)C(=O)N[C@@H](Cc1c[nH]c2ccccc12)C(N)=O)[C@@H](C)CC [PapMA-22, RWK IFK KIl KLL HKA KKW-NH2] (H-RWKIFKKI[dL]KLLHKAKKW-NH2; N-terminus assumed)
MDRAB 12035 [1]
  Minimal inhibitory concentration MIC: 32 mg/L (≈ 13.5 µM)
  Peptide MIC, peptide alone: 32 mg/L
A. baumannii [2]
  Minimal inhibitory concentration MIC: 16 mg/L (≈ 6.77 µM)
  Peptide MIC, peptide alone: 16 mg/L
  Antibacterial activity relative to PapMA-1: at least twice as high
MDRST 8009
  Minimal inhibitory concentration MIC: 32 mg/L (≈ 13.5 µM)
[3]
  Antibacterial activity relative to PapMA-1: twice to four times higher
S. typhimurium
  Minimal inhibitory concentration MIC: 32 mg/L (≈ 13.5 µM)
MDRAB 12035 [4]; [6]
  Peptide MIC during treatment with erythromycin: 8 mg/L
MDRAB 12035 [4]; [7]
  Peptide MIC during treatment with erythromycin: 8 mg/L
MDRAB 12035 [4]; [8]
  Peptide MIC during treatment with erythromycin: 4 mg/L
MDRAB 12035 [4]; [9]
  Peptide MIC during treatment with erythromycin: 0 mg/L
MDRAB 12035 [4]; [10]
  Peptide MIC during treatment with linezolid: 4 mg/L
MDRAB 12035 [4]; [11]
  Peptide MIC during treatment with linezolid: 0 mg/L
MDRAB 12035 [4]; linezolid […] (Conc./MIC 1/2)
  Peptide MIC during treatment with linezolid: 1 mg/L
MDRAB 12035 [4]; linezolid […] (Conc./MIC 1/4)
  Peptide MIC during treatment with linezolid: 4 mg/L
MDRAB 12035 [4]; [12]
  Peptide MIC during treatment with vancomycin: 4 mg/L
MDRAB 12035 [4]; [13]
  Peptide MIC during treatment with vancomycin: 1 mg/L
MDRAB 12035 [4]; vancomycin […] (Conc./MIC 1/4)
  Peptide MIC during treatment with vancomycin: 4 mg/L
MDRAB 12035 [4]; vancomycin […] (Conc./MIC 1/8)
  Peptide MIC during treatment with vancomycin: 4 mg/L
A. baumannii [5]; [6]
  Peptide MIC during treatment with erythromycin: 8 mg/L
A. baumannii [5]; [7]
  Peptide MIC during treatment with erythromycin: 4 mg/L
A. baumannii [5]; [8]
  Peptide MIC during treatment with erythromycin: 4 mg/L
A. baumannii [5]; [9]
  Peptide MIC during treatment with erythromycin: 0 mg/L
A. baumannii [5]; [14]
  Peptide MIC during treatment with linezolid: 4 mg/L
A. baumannii [5]; [15]
  Peptide MIC during treatment with linezolid: 4 mg/L
A. baumannii [5]; linezolid […] (Conc./MIC 1)
  Peptide MIC during treatment with linezolid: 0 mg/L
A. baumannii [5]; linezolid […] (Conc./MIC 1/2)
  Peptide MIC during treatment with linezolid: 1 mg/L
A. baumannii [5]; [12]
  Peptide MIC during treatment with vancomycin: 0.25 mg/L
A. baumannii [5]; [13]
  Peptide MIC during treatment with vancomycin: 0 mg/L
A. baumannii [5]; vancomycin […] (Conc./MIC 1/4)
  Peptide MIC during treatment with vancomycin: 0.5 mg/L
A. baumannii [5]; vancomycin […] (Conc./MIC 1/8)
  Peptide MIC during treatment with vancomycin: 2 mg/L
E. coli; [16]
  Peptide MIC: 0 mg/L
E. coli; [17]
  Peptide MIC: 0 mg/L
E. coli; [18]
  Peptide MIC: 0 mg/L
MDREC 1229; [19]
  Peptide MIC during treatment with antibiotic: 2 mg/L
MDREC 1229; [20]
  Peptide MIC during treatment with antibiotic: 2 mg/L
MDREC 1229; erythromycin […] (Conc./MIC 1)
  Peptide MIC during treatment with antibiotic: 0 mg/L
MDREC 1229; [21]
  Peptide MIC during treatment with antibiotic: 1 mg/L
MDREC 1229; [10]
  Peptide MIC during treatment with antibiotic: 8 mg/L
MDREC 1229; [11]
  Peptide MIC during treatment with antibiotic: 0 mg/L
MDREC 1229; linezolid […] (Conc./MIC 1/2)
  Peptide MIC during treatment with antibiotic: 1 mg/L
MDREC 1229; linezolid […] (Conc./MIC 1/4)
  Peptide MIC during treatment with antibiotic: 4 mg/L
MDREC 1229; [12]
  Peptide MIC during treatment with antibiotic: 2 mg/L
MDREC 1229; [13]
  Peptide MIC during treatment with antibiotic: 2 mg/L
MDREC 1229; vancomycin […] (Conc./MIC 1/4)
  Peptide MIC during treatment with antibiotic: 4 mg/L
MDREC 1229; vancomycin […] (Conc./MIC 1/8)
  Peptide MIC during treatment with antibiotic: 8 mg/L
MDRAB 12036
  Minimal inhibitory concentration MIC: 32 mg/L (≈ 13.5 µM)
